In patent US20060074243A1, “Hydroxamic acid and amide compounds and their use as protease inhibitors” (Pharmacia Corporation, priority 2002, published 2006):

Tests used:
Assay in all cases: In vitro MMP inhibition analysis (fluorogenic peptide substrate cleavage), Ki
Type in all cases: biochemical
Details in all cases: Table 2
Human recombinant MMP-9 = molecular target: T1, Human recombinant MMP-9 (Homo sapiens, UniProt P14780)
T1 construct: made in house; host or cells: MMP-9-transfected HT1080 cells (spent media)
T1 sequence (P14780 107-707 limits assumed): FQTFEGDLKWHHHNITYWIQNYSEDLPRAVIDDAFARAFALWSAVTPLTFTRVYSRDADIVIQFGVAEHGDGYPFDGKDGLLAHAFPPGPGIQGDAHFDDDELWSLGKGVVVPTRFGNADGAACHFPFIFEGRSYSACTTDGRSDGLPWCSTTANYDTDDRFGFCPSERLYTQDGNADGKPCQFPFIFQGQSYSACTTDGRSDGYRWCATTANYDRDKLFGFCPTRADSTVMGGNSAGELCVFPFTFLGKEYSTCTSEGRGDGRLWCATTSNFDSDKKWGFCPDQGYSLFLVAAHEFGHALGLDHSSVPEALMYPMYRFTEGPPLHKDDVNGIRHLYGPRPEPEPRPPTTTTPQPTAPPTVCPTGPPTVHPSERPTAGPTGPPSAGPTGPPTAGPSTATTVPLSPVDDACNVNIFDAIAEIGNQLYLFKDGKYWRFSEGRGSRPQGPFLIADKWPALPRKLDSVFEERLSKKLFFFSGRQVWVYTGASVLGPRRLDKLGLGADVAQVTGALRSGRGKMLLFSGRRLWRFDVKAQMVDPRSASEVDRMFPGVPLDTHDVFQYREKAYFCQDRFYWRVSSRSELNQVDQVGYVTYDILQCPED
In short: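 Recombinant MMP-9 purified from transfected HT1080 cell media, activated with APMA, trypsin or recombinant MMP-3, assayed in Tris buffer pH 7.5 with CaCl2 and 4 μM fluorogenic MCA/Dpa peptide, 1 h at room temperature (ex 330/em 420 nm). Ki from Morrison-equation regression of velocity; substrate at or below Km, uncorrected.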

Human recombinant MMP-1 = molecular target: T2, Human recombinant MMP-1 (Homo sapiens, UniProt P03956)
T2 construct: made in house; host or cells: MMP-1-transfected HT-1080 cells (spent media)
T2 sequence (P03956 100-469): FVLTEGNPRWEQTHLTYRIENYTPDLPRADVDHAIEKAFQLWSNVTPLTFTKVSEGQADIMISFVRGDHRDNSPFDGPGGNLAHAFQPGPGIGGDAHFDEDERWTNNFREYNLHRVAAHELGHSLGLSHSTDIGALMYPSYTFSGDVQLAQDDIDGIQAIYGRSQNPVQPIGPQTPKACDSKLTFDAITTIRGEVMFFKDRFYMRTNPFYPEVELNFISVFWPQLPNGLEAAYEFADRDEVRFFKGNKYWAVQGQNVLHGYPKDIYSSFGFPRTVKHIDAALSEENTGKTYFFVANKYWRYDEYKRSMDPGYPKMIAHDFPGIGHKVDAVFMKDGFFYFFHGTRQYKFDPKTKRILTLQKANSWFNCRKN
In short: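 APMA- or trypsin-activated recombinant human MMP-1 (purified from transfected HT-1080 medium) with 4 μM MCA/Dpa quenched fluorogenic peptide, 1 h at room temperature in Tris/NaCl/CaCl2 buffer pH 7.5; fluorescence ex 330/em 420 nm. Ki from Morrison-equation fit of rates, substrate at or below Km, uncorrected.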

Human recombinant MMP-13 = molecular target: T3, Human recombinant MMP-13 (Homo sapiens, UniProt P45452)
T3 construct: made in house; host or cells: baculovirus / insect cells
In short: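 Baculovirus-expressed full-length MMP-13 proenzyme was purified on heparin-agarose and zinc-chelate columns, then APMA-activated. It cleaved 4 μM MCA/Dpa fluorogenic peptide in 100 mM Tris-HCl, 100 mM NaCl, 10 mM CaCl2, 0.05% Brij-23, pH 7.5, for 1 h at room temperature (ex 330/em 420 nm). Ki came from Morrison-equation fits with substrate ≤Km, uncorrected.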

O=C(NO)C1(S(=O)(=O)c2ccc(-c3cnc(OCC4CC4)cn3)cc2)CCOCC1 [Example 168]
Ki (Human recombinant MMP-9): 0.19 nM | Ki (Human recombinant MMP-1): 1920 nM | Ki (Human recombinant MMP-13): 0.06 nM

O=C(NO)C1(S(=O)(=O)c2ccc(-c3cnc(OCCCC(F)(F)F)cn3)cc2)CCOCC1 [Example 88]
Ki (Human recombinant MMP-9): 2.31 nM | Ki (Human recombinant MMP-1): 3520 nM | Ki (Human recombinant MMP-13): 0.0368 nM

O=C(NO)C1(S(=O)(=O)c2ccc(-c3ccc(OC(F)(F)F)cc3)cc2)CCOCC1 [Example 80]
Ki (Human recombinant MMP-9): 0.622 nM | Ki (Human recombinant MMP-1): 577 nM | Ki (Human recombinant MMP-13): 0.068 nM

O=C(NO)C1(S(=O)(=O)c2ccc(-c3ccccc3CO)cc2)CCOCC1 [Example 197]
Ki (Human recombinant MMP-9): > 10000 nM | Ki (Human recombinant MMP-1): > 10000 nM | Ki (Human recombinant MMP-13): 1080 nM

O=C(NO)C1(S(=O)(=O)c2ccc(-c3ccc(OCC(F)(F)C(F)(F)F)cc3)cc2)CCOCC1 [Example 95]
Ki (Human recombinant MMP-9): 0.752 nM | Ki (Human recombinant MMP-1): 1020 nM | Ki (Human recombinant MMP-13): 0.155 nM

CC(C)CCOc1ccc(-c2ccc(S(=O)(=O)C3(C(=O)NO)CCOCC3)cc2)cc1C(F)(F)F [Example 86]
Ki (Human recombinant MMP-9): 414 nM | Ki (Human recombinant MMP-1): > 10000 nM | Ki (Human recombinant MMP-13): 36.2 nM

O=C(N1CCOCC1)N1CCC(C(=O)NO)(S(=O)(=O)c2ccc(-c3ccc(CCC(F)(F)C(F)(F)F)cc3)cc2)CC1 [Example 171]
Ki (Human recombinant MMP-9): 0.62 nM | Ki (Human recombinant MMP-1): 6370 nM | Ki (Human recombinant MMP-13): 0.23 nM

O=C1c2ccccc2C(=O)N1CCCOc1cccc(-c2ccc(S(=O)(=O)C3(C(=O)NO)CCOCC3)cc2)c1 [Example 196]
Ki (Human recombinant MMP-9): 430 nM | Ki (Human recombinant MMP-1): > 10000 nM | Ki (Human recombinant MMP-13): 13.5 nM

COc1ccc(C(=O)c2cnc(-c3ccc(S(=O)(=O)C4(C(=O)NO)CCOCC4)cc3)cn2)cc1 [Example 179]
Ki (Human recombinant MMP-9): 38.6 nM | Ki (Human recombinant MMP-1): > 10000 nM | Ki (Human recombinant MMP-13): 0.973 nM

CCCCc1cnc(-c2ccc(S(=O)(=O)C3(C(=O)NO)CCN(CCOC)CC3)cc2)cn1 [Example 206]
Ki (Human recombinant MMP-9): 1.8 nM | Ki (Human recombinant MMP-1): > 10000 nM | Ki (Human recombinant MMP-13): 0.41 nM

CCCCc1ccc(-c2ccc(S(=O)(=O)C3(C(=O)NO)CCOCC3)cc2)cc1 [Example 91]
Ki (Human recombinant MMP-9): 0.266 nM | Ki (Human recombinant MMP-1): 3900 nM | Ki (Human recombinant MMP-13): 0.217 nM

O=C(NO)C1(S(=O)(=O)c2ccc(-c3cnc(OCCC4CCCC4)cn3)cc2)CCOCC1 [Example 180]
Ki (Human recombinant MMP-9): 1.03 nM | Ki (Human recombinant MMP-1): > 10000 nM | Ki (Human recombinant MMP-13): 0.15 nM

COC(=O)c1ccc2cc(-c3ccc(S(=O)(=O)C4(C(=O)NO)CCOCC4)cc3)ccc2c1 [Example 181]
Ki (Human recombinant MMP-9): 0.264 nM | Ki (Human recombinant MMP-1): 465 nM | Ki (Human recombinant MMP-13): 0.09 nM

O=C(NO)C1(S(=O)(=O)c2ccc(-c3nc4ccccc4o3)cc2)CCOCC1 [Example 193]
Ki (Human recombinant MMP-9): 11.5 nM | Ki (Human recombinant MMP-1): 1490 nM | Ki (Human recombinant MMP-13): 1.69 nM

O=C(c1ccc2cc(-c3ccc(S(=O)(=O)C4(C(=O)NO)CCOCC4)cc3)ccc2c1)N1CCCCC1 [Example 223]
Ki (Human recombinant MMP-9): 34.3 nM | Ki (Human recombinant MMP-1): 1500 nM | Ki (Human recombinant MMP-13): 0.97 nM

COCCOC1CCC(C(=O)NO)(S(=O)(=O)c2ccc(-c3cnc(CCCC(F)(F)F)cn3)cc2)CC1 (stereo not drawn) [Example 210]
Ki (Human recombinant MMP-9): 0.75 nM | Ki (Human recombinant MMP-1): > 10000 nM | Ki (Human recombinant MMP-13): 0.151 nM

CC(C)CC#Cc1cnc(-c2ccc(S(=O)(=O)C3(C(=O)NO)CCOCC3)cc2)cn1 [Example 166]
Ki (Human recombinant MMP-9): 0.1 nM | Ki (Human recombinant MMP-1): 1660 nM | Ki (Human recombinant MMP-13): 0.03 nM

COCCN1CCC(C(=O)NO)(S(=O)(=O)c2ccc(-c3cnc(OCCC4CCCC4)cn3)cc2)CC1 [Example 200]
Ki (Human recombinant MMP-9): 0.648 nM | Ki (Human recombinant MMP-1): > 10000 nM | Ki (Human recombinant MMP-13): 0.144 nM

O=C(NO)C1(S(=O)(=O)c2ccc(-c3ccc4c(c3)OCO4)cc2)CCOCC1 [Example 188]
Ki (Human recombinant MMP-9): 4.23 nM | Ki (Human recombinant MMP-1): 81.2 nM | Ki (Human recombinant MMP-13): 0.08 nM

CC[C@H](C)NC(=O)c1ccc(-c2ccc(S(=O)(=O)C3(C(=O)NO)CCOCC3)cc2)nc1 [Example 208]
Ki (Human recombinant MMP-9): 39.4 nM | Ki (Human recombinant MMP-1): 1260 nM | Ki (Human recombinant MMP-13): 0.715 nM

CN(C)C(=O)c1ccc2cc(-c3ccc(S(=O)(=O)C4(C(=O)NO)CCOCC4)cc3)ccc2c1 [Example 221]
Ki (Human recombinant MMP-9): 16.7 nM | Ki (Human recombinant MMP-1): 1860 nM | Ki (Human recombinant MMP-13): 0.736 nM

C#CCN(C)C(=O)c1ccc2cc(-c3ccc(S(=O)(=O)C4(C(=O)NO)CCOCC4)cc3)ccc2c1 [Example 216]
Ki (Human recombinant MMP-9): 13.3 nM | Ki (Human recombinant MMP-1): 1860 nM | Ki (Human recombinant MMP-13): 0.572 nM

COCCOC1CCC(C(=O)NO)(S(=O)(=O)c2ccc(-c3ccc(CCCC(F)(F)F)cn3)cc2)CC1 (stereo not drawn) [Example 209]
Ki (Human recombinant MMP-9): 0.138 nM | Ki (Human recombinant MMP-1): 1280 nM | Ki (Human recombinant MMP-13): 0.029 nM

COC/C(Cl)=C/c1cnc(-c2ccc(S(=O)(=O)C3(C(=O)NO)CCOCC3)cc2)cn1 [Example 165]
Ki (Human recombinant MMP-9): 267 nM | Ki (Human recombinant MMP-1): 8950 nM | Ki (Human recombinant MMP-13): 0.84 nM

Cc1ccc(-c2ccc(S(=O)(=O)C3(C(=O)NO)CCOCC3)cc2)nc1 [Example 81]
Ki (Human recombinant MMP-9): 0.993 nM | Ki (Human recombinant MMP-1): 354 nM | Ki (Human recombinant MMP-13): 0.118 nM

CO[C@H]1CC[C@](C(=O)NO)(S(=O)(=O)c2ccc(-c3cnc(CCC(F)(F)C(F)(F)F)cn3)cc2)CC1 [Example 183]
Ki (Human recombinant MMP-9): 0.14 nM | Ki (Human recombinant MMP-1): > 10000 nM | Ki (Human recombinant MMP-13): 0.13 nM

O=C(NO)C1(S(=O)(=O)c2ccc(-c3ccc(OCC(F)(F)C(F)(F)F)c(C(F)(F)F)c3)cc2)CCOCC1 [Example 90]
Ki (Human recombinant MMP-9): 216 nM | Ki (Human recombinant MMP-1): > 10000 nM | Ki (Human recombinant MMP-13): 19.7 nM

CCCCNC(=O)c1cnc(-c2ccc(S(=O)(=O)C3(C(=O)NO)CCOCC3)cc2)cn1 [Example 184]
Ki (Human recombinant MMP-9): 13.1 nM | Ki (Human recombinant MMP-1): 533 nM | Ki (Human recombinant MMP-13): 0.21 nM

O=C(c1ccc2cc(-c3ccc(S(=O)(=O)C4(C(=O)NO)CCOCC4)cc3)ccc2c1)N1CCOCC1 [Example 222]
Ki (Human recombinant MMP-9): 29.5 nM | Ki (Human recombinant MMP-1): 1440 nM | Ki (Human recombinant MMP-13): 0.612 nM

CCN1CCC(C(=O)NO)(S(=O)(=O)c2ccc(-c3cnc(CCCC(F)(F)F)cn3)cc2)CC1 [Example 217]
Ki (Human recombinant MMP-9): 5.22 nM | Ki (Human recombinant MMP-1): > 10000 nM | Ki (Human recombinant MMP-13): 1.2 nM

O=C(NC1CCCC1)c1ccc(-c2ccc(S(=O)(=O)C3(C(=O)NO)CCOCC3)cc2)nc1 [Example 198]
Ki (Human recombinant MMP-9): 28.4 nM | Ki (Human recombinant MMP-1): 552 nM | Ki (Human recombinant MMP-13): 0.323 nM

O=C(NCC1CCCCC1)c1cnc(-c2ccc(S(=O)(=O)C3(C(=O)NO)CCOCC3)cc2)cn1 [Example 190]
Ki (Human recombinant MMP-9): 32.3 nM | Ki (Human recombinant MMP-1): 1310 nM | Ki (Human recombinant MMP-13): 0.28 nM

COCCOc1ccc(-c2ccc(S(=O)(=O)C3(C(=O)NO)CCOCC3)cc2)cc1 [Example 70]
Ki (Human recombinant MMP-9): 1.11 nM | Ki (Human recombinant MMP-1): 969 nM | Ki (Human recombinant MMP-13): 0.03 nM

COCCN1CCC(C(=O)NO)(S(=O)(=O)c2ccc(-c3cnc(CCC(F)(F)F)cn3)cc2)CC1 [Example 214]
Ki (Human recombinant MMP-9): 2.05 nM | Ki (Human recombinant MMP-1): > 10000 nM | Ki (Human recombinant MMP-13): 0.661 nM

CC(C)c1ccc(-c2ccc(S(=O)(=O)C3(C(=O)NO)CCOCC3)cc2)cc1 [Example 97]
Ki (Human recombinant MMP-9): 5.4 nM | Ki (Human recombinant MMP-1): 1040 nM | Ki (Human recombinant MMP-13): 0.521 nM

O=C(NCC(F)(F)C(F)(F)F)c1cnc(-c2ccc(S(=O)(=O)C3(C(=O)NO)CCOCC3)cc2)cn1 [Example 192]
Ki (Human recombinant MMP-9): 41.1 nM | Ki (Human recombinant MMP-1): 1540 nM | Ki (Human recombinant MMP-13): 0.22 nM

O=C(N1CCCCC1)N1CCC(C(=O)NO)(S(=O)(=O)c2ccc(-c3ccc(CCC(F)(F)C(F)(F)F)cc3)cc2)CC1 [Example 175]
Ki (Human recombinant MMP-9): 1.35 nM | Ki (Human recombinant MMP-1): > 10000 nM | Ki (Human recombinant MMP-13): 0.71 nM

O=C(NO)C1(S(=O)(=O)c2ccc(-c3ccc(CCC(F)(F)C(F)(F)F)cn3)cc2)CCOCC1 [Example 201]
Ki (Human recombinant MMP-9): 0.097 nM | Ki (Human recombinant MMP-1): 980 nM | Ki (Human recombinant MMP-13): 0.02 nM
